Reference: patent US20250161285A1, “BACTERIAL BIOFILM INHIBITORS” (THE RESEARCH INSTITUTE AT NATIONWIDE CHILDREN'S HOSPITAL, priority 2022, published 2025)
Like-named read-outs stand apart in the source and are kept apart here.

Key:
[1] = system: S. Typhimurium ATCC 14028; experiment: Murine model of chronic Salmonella gallbladder carriage, combination with ciprofloxacin; type: in vivo, 129X1/SvJ NRAMP+/+ mice; conditions: for reduction in bacterial burden in the gallbladder: 5 mg/kg/day compound + 1 mg/kg/day cipro I.P., 15 dpi
Procedure: FIGS. 5A-5F provide graphs showing Enumeration of Salmonella in the gallbladder, liver, and spleen of infected mice at 15 dpi. […] Dotted lines represent the limit of detection where applicable; significant differences among the bacterial burden of treatment groups were determined via one-way ANOVA with the Tukey correction for multiple comparisons; ns non-significant, * p<0.05, ** p<0.01, *** p<0.001, **** p<0.0001.
Murine model of chronic Salmonella gallbladder carriage and evaluation of compound therapeutic efficacy in combination with ciprofloxacin. A total of 46 adult 129X1/SvJ NRAMP^+/+ mice (The Jackson Laboratory, Bar Harbour, ME) were used in this study. […] Mice were randomly assigned to treatment groups in two separate experiments. […] Treatments were administered daily via I.P. injection from days 5-15 post-infection. On day 15 post-infection, mice were euthanized and gallbladders, livers, and spleens were removed and homogenized in a volume of 1 mL sterile PBS using a TissueLyser LT bead mill (Qiagen, Valencia, CA). Tissue homogenates were serially diluted in PBS, plated onto LB agar, and incubated at 37° C. for 16h in order to quantify bacterial burden via CFU enumeration.

[2] = system: S. Typhimurium ATCC 14028; conditions: cited from earlier work
[3] = system: S. Typhimurium ATCC 14028 (JSG210) biofilms; experiment: Biofilm dispersion assay on pre-formed biofilms (crystal violet staining); type: cell-based, Salmonella enterica serovar Typhimurium; conditions: 50% dispersion of biofilms established 24 h, then 24 h with compound, crystal violet OD570, mean ± standard deviation
Procedure: (§1) Salmonella biofilm growth and crystal violet staining. […] For biofilm assays, individual bacterial colonies were picked and used to inoculate LB broth for overnight liquid cultures, which were grown at 37° C. with aeration using a rotating drum. […] Biofilm plates were then submerged in dH2O to wash away any remaining non-adherent bacteria and heat fixed (1h, 60° C.). Biofilms were then stained with a 33% crystal violet solution (6 mL PBS, 3.3 mL crystal violet, 333 μL methanol, 333 μL isopropanol) for 5 min. and washed twice by submerging in dH2O before releasing the bound dye with 33% glacial acetic acid. Biofilm growth was then quantified by measuring the optical density of the solubilized dye at 570 nm using a spectrophotometer (Molecular Devices, SpectraMax M5).
(§2) Biofilm Inhibition and Dispersion Assays and IC50/EC50 Determination. […] Biofilms were then grown as described above for a total of 24 h prior to CV staining. […] Biofilms were then incubated for an additional 24 h in the presence of compounds prior to CV staining. IC50/EC50 values were calculated by plotting normalized compound activity (percent biofilm formed and percent remaining, respectively) as a function of log10 compound concentration and fitting a dose response curve (log[inhibitor] vs. normalized response, variable slope).

[4] = system: S. Typhimurium ATCC 14028 (JSG210) biofilms; experiment: Biofilm inhibition assay (crystal violet staining); type: cell-based, Salmonella enterica serovar Typhimurium; conditions: for IC50: inhibition of S. Typhimurium biofilm formation, compound present 24 h, crystal violet OD570, mean ± standard deviation
Procedure: Inhibition of biofilm formation is assessed by growing bacteria in a 96-well plate in the absence (control) or presence of test compounds. After 24 hours, the wells are washed to remove planktonic bacteria, and the remaining surface attached bacteria (biofilm) are stained with crystal violet (CV). The wells are then washed again to remove excess CV, and the remaining CV is solubilized with a solution of acetic acid and then quantified by spectrophotometry at 570 nm. A dose response curve is then constructed from which an IC50 value is determined.
as §1, §2

[5] = 2 mg/kg/day cipro alone, I.P., days 5-15 post-infection
[6] = 5 mg/kg/day 7d + 4 mg/kg/day cipro, I.P., days 5-15

Row | Structure (SMILES) | EC50 [3] [µM] | IC50 [4] [µM] | also measured
1 | CN(Cc1ccsc1)CC1CCN(CCc2ccccc2F)CC1 [Compound 1] | 829 | 5.7 | reduction in bacterial burden in the gallbladder ([1]; days 5-15 post-infection): ~2 log-fold; reduction in the bacterial burden in the gallbladder ([2]; compound 1 10 mg/kg/day + ciprofloxacin 1.0 mg/kg/day (Sandala et al., 2020)): 3-4.5 log; reduction of bacterial burden in the gallbladder ([2]; compound 1 at 10 mg/kg/day, previous experiments (Sandala et al., 2020)): several logs
2 | CN(Cc1ccsc1)CC1CCN(CCc2ccc(-c3ccccc3)cc2)CC1 [Compound 8j] | – | – | reduction in bacterial burden in the gallbladder ([1]; days 5-15 post-infection): 3.5-4 log-fold
3 | O=C(O)c1cn(C2CC2)c2cc(N3CCNCC3)c(F)cc2c1=O [cipro, ciprofloxacin, reference compound] | – | – | bacteria recovered from the liver and spleen [1, 5]: reduce the number of bacteria recovered; effect on bacterial burden within the gallbladder [1, 5]: no statistically significant effect; reduction of bacterial gallbladder burden ([1]; 4 mg/kg/day cipro alone, I.P., days 5-15 post-infection): 3-4 logs
4 | CN(Cc1ccsc1)CC1CCN(CCc2ccc(Br)c(Br)c2)CC1 [Compound 7d] | – | – | CFUs recovered in all organs (gallbladder, liver, spleen) [1, 6]: neared the limit of detection; gallbladder bacteria versus 4 mg/kg/day cipro alone [1, 6]: additional significant reduction; reduction in bacterial burden in the gallbladder ([1]; days 5-15 post-infection): 4.5-5 log-fold; reduction of bacterial burden in the gallbladder ([1]; compound with ciprofloxacin): 4.5-5 logs
5 | CN(Cc1ccc(F)cc1)CC1CCN(CCc2ccccc2F)CC1 [Compound 3.1i] | > 75 | 5.5 | –
6 | CN(Cc1ccsc1)CC1CCN(CCc2cc(Cl)cc(Cl)c2)CC1 [Compound 6e] | 45 | 1.6 | –
7 | CN(Cc1ccsc1)CC1CCN(Cc2cccc(Cl)c2)CC1 [Compound 7h] | 299 ± 21 | 5.2 ± 1.3 | –
8 | CN(Cc1ccsc1)CC1CCN(CCCc2ccccc2F)CC1 [Compound 6l] | 221 ± 17 | 11.5 ± 2.7 | –
9 | CN(Cc1ccc(Cl)c(Cl)c1)CC1CCN(CCc2ccc(Cl)c(Cl)c2)CC1 [Compound 3.2h] | 17 | 0.96 | –
10 | CN(Cc1ccsc1)CC1CCN(Cc2ccccc2C(F)(F)F)CC1 [Compound 7u] | 140 ± 39 | 20.9 | –
11 | CN(Cc1ccccn1)CC1CCN(CCc2ccccc2F)CC1 [Compound 3.8a] | > 50 | > 20 | –
12 | CC(C)c1ccc(CCN2CCC(CN(C)Cc3ccsc3)CC2)cc1 [Compound 8h] | 123 ± 7 | 2.3 | –
13 | CN(Cc1cccc2ccccc12)CC1CCN(CCc2ccccc2F)CC1 [Compound 3.4a] | 12 ± 8 | 4.2 ± 2.9 | –
14 | CN(Cc1ccccc1F)CC1CCN(CCc2ccccc2F)CC1 [Compound 3.1c] | > 75 | 14.9 | –
15 | CN(Cc1ccsc1)CC1CCN(CCc2cccc(Cl)c2Cl)CC1 [Compound 7b] | – | – | reduction in bacterial burden in the gallbladder ([1]; days 5-15 post-infection): ~1.5 log-fold
16 | CN(Cc1ccsc1)CC1CCN(Cc2ccccc2I)CC1 [Compound 8d] | 79 ± 5 | 5.4 ± 0.5 | –
17 | CN(Cc1ccsc1)CC1CCN(CCc2ccc(Cl)cc2)CC1 [Compound 6b] | 69 ± 4 | 3 ± 1.4 | fold improvement of IC50 versus comparator ([4]; 6a vs 4c, 6b vs 4d, 6g vs 4c and 4d, 8i vs 8b): over four-fold
18 | CN(Cc1ccccc1Cl)CC1CCN(CCc2ccccc2F)CC1 [Compound 3.1d] | > 75 | 6.3 | –
19 | CNCC1CCN(CCc2ccccc2F)CC1 [Compound 5] | – | – | EC50 ([3]; Salmonella enterica): > 12000 µM; anti-biofilm activity (inhibition and dispersion) in words ([4]; S. Typhimurium biofilms in vitro): abrogated activity; IC50 ([4]; Salmonella enterica): > 200 µM
